Measurements as given in ChEMBL document CHEMBL3580641, “Bioactive Maleic Anhydrides and Related Diacids from the Aquatic Hyphomycete Tricladium castaneicola” (J Nat Prod, 2015).
pIC50: −log10 of the molar value. Activity calls are given as the source filed them. No cut-off for these calls is given here.

Legend:
Phytophthora capsici = assay: Antifungal activity against Phytophthora capsici NBRC 30696 after 22 to 24 hrs by paper disk diffusion method; assay type: functional, organism-based
B16 = assay: Cytotoxicity against mouse B16 cells assessed as cell viability after 48 hrs by MTT assay; assay type: functional, cell-based; conditions: B16, 48 h

Row | SMILES | Activity (Phytophthora capsici) | pIC50 (B16)
1 | CC1=C(/C=C/CCCCC(C)O)C(=O)OC1=O (stereo unspecified) | inactive | 
2 | CC1=C(/C=C/CCC/C=C/CO)C(=O)OC1=O | inactive | 
3 | CCCCCC/C=C/C(C(=O)OC)=C(\C)C(=O)OC | Active | 4.52
4 | CC1=C(/C=C/CCC/C=C/C(=O)O)C(=O)OC1=O | Active | 
5 | CCCCCC/C=C/C1=C(C)C(=O)OC1=O | Active | 4.10
6 | C=C(C(=O)O)/C(=C\CCCCCCCO)C(=O)O | Active | 
7 | C[C@@H]1[C@H](O)[C@@H](C)/C=C/C=C/C=C/C=C/C=C/C=C/C=C/[C@H](O[C@@H]2O[C@H](C)[C@@H](O)[C@H](N)[C@@H]2O)C[C@@H]2O[C@](O)(C[C@@H](O)C[C@@H](O)[C@H](O)CC[C@@H](O)C[C@@H](O)CC(=O)O[C@H]1C)C[C@H](O)[C@H]2C(=O)O | Active | 
8 | CC(=O)O[C@H]1C(=O)[C@@]2(C)[C@H]([C@H](OC(=O)c3ccccc3)[C@]3(O)C[C@H](OC(=O)[C@H](O)[C@@H](NC(=O)c4ccccc4)c4ccccc4)C(C)=C1C3(C)C)[C@]1(OC(C)=O)CO[C@@H]1C[C@@H]2O [PACLITAXEL] |  | 4.25
9 | C=C(C(=O)O)/C(=C\CCCC[C@@H](O)CC)C(=O)O | Active | 
